Test results reported in publication PMC7827406, “Structure–Activity Relationship (SAR) Study of Spautin-1 to Entail the Discovery of Novel NEK4 Inhibitors” (International Journal of Molecular Sciences, 2021).
Where two headings read alike, the source gives them in different places.

Legend:
Test in all cases: biochemical
Design in all cases: Eurofins KinaseProfiler full panel at Km ATP, residual kinase activity (%) relative to DMSO
[1] = target: ATM(h) (Homo sapiens, UniProt Q13315)
In short: (§1)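 Radiometric kinase activity assays were run with ATP at Km and compounds at 10 µM, and remaining activity (%) was reported. A separate competitive binding screen measured DNA-tagged kinase displaced from immobilized active-site ligands by qPCR, giving percent kinase still bound at 10 µM compound in DMSO.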

[2] = target: T1, CK1γ2(h) (Homo sapiens, UniProt P78368)
T1 construct: gene CSNK1G2
In short: as §1

[3] = target: T2, FAK(h) (Homo sapiens, UniProt Q05397)
T2 construct: gene PTK2
In short: as §1

[4] = target: T3, PI3 Kinase (p110b/p85a)(h) (Homo sapiens, UniProt P42338)
T3 construct: gene PIK3CB
In short: as §1

[5] = target: T4, PKCε(h) (Homo sapiens, UniProt Q02156)
T4 construct: gene PRKCE
T4 sequence (Q02156 1-737): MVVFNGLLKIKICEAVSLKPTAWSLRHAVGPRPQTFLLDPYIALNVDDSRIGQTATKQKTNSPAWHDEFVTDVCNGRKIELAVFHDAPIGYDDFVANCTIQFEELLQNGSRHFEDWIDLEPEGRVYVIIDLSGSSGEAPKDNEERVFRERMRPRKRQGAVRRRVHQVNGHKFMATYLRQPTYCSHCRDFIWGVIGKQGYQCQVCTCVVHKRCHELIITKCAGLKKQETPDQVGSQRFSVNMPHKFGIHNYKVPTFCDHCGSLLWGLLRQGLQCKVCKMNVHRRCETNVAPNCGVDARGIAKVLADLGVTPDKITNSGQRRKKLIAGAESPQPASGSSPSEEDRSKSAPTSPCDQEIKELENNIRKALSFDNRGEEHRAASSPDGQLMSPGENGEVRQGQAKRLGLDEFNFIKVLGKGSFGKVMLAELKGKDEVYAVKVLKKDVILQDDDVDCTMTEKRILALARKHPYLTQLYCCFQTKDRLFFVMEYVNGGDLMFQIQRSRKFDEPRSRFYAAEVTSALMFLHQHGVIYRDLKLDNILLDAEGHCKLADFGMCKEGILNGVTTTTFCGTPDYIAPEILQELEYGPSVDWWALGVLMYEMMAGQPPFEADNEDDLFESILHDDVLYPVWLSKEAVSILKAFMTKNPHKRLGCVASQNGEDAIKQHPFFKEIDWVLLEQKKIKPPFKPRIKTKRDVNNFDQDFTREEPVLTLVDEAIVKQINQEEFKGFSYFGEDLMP
In short: as §1

[6] = target: T5, SIK(h) (Homo sapiens, UniProt P57059)
T5 construct: gene SIK1
In short: as §1

[7] = target: T6, ULK2(h) (Homo sapiens, UniProt Q8IYT8)
T6 sequence (Q8IYT8 1-1036): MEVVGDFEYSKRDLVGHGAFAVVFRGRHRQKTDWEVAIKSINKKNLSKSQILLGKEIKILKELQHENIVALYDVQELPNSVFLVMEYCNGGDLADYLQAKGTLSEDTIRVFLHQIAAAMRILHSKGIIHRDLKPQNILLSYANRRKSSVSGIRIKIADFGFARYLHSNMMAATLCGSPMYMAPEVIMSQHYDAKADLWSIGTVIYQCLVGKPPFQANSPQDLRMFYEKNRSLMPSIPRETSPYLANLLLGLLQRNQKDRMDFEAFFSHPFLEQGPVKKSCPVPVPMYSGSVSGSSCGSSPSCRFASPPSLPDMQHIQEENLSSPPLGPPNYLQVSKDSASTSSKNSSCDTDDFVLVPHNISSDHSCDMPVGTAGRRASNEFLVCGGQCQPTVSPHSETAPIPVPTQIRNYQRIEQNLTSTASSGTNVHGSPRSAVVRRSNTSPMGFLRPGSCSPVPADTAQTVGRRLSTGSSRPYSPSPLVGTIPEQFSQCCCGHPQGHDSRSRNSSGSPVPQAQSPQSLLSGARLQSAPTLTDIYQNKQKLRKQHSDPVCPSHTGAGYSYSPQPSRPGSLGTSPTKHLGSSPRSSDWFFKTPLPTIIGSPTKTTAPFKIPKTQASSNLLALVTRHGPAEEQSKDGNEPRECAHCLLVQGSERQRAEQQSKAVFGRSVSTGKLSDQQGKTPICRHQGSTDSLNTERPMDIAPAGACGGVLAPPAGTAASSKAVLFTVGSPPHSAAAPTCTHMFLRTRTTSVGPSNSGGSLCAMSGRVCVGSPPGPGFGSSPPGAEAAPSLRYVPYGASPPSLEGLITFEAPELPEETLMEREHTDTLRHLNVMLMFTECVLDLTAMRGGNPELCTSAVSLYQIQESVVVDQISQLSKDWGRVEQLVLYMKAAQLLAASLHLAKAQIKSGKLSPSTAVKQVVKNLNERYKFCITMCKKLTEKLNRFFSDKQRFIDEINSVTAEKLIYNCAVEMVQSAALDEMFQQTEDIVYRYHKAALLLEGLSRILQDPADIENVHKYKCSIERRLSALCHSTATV
In short: as §1

[8] = target: T7, cSRC(h) (Homo sapiens, UniProt P12931)
T7 construct: gene SRC
In short: as §1

[9] = read-out: Residual activity (%) 5ay
[10] = read-out: Residual activity (%) Spautin-1 5aa
[11] = read-out: Residual activity (%) 5at
[12] = read-out: Residual activity (%) 5as

T7 sequence (P12931 whole entry): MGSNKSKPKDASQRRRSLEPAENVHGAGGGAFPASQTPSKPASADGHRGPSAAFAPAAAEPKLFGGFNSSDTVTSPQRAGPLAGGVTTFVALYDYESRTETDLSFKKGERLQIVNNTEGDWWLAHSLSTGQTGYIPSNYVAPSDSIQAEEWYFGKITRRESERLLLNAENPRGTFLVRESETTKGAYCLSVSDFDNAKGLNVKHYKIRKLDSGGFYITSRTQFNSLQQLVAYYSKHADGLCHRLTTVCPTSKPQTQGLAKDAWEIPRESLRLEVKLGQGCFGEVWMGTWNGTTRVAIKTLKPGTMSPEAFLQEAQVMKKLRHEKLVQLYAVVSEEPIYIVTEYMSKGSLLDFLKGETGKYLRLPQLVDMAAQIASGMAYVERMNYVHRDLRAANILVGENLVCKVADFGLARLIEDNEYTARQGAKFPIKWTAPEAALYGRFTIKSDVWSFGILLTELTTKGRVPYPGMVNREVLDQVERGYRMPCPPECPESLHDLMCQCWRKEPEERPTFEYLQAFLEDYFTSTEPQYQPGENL
ATM(h), sequence (Q13315 whole entry): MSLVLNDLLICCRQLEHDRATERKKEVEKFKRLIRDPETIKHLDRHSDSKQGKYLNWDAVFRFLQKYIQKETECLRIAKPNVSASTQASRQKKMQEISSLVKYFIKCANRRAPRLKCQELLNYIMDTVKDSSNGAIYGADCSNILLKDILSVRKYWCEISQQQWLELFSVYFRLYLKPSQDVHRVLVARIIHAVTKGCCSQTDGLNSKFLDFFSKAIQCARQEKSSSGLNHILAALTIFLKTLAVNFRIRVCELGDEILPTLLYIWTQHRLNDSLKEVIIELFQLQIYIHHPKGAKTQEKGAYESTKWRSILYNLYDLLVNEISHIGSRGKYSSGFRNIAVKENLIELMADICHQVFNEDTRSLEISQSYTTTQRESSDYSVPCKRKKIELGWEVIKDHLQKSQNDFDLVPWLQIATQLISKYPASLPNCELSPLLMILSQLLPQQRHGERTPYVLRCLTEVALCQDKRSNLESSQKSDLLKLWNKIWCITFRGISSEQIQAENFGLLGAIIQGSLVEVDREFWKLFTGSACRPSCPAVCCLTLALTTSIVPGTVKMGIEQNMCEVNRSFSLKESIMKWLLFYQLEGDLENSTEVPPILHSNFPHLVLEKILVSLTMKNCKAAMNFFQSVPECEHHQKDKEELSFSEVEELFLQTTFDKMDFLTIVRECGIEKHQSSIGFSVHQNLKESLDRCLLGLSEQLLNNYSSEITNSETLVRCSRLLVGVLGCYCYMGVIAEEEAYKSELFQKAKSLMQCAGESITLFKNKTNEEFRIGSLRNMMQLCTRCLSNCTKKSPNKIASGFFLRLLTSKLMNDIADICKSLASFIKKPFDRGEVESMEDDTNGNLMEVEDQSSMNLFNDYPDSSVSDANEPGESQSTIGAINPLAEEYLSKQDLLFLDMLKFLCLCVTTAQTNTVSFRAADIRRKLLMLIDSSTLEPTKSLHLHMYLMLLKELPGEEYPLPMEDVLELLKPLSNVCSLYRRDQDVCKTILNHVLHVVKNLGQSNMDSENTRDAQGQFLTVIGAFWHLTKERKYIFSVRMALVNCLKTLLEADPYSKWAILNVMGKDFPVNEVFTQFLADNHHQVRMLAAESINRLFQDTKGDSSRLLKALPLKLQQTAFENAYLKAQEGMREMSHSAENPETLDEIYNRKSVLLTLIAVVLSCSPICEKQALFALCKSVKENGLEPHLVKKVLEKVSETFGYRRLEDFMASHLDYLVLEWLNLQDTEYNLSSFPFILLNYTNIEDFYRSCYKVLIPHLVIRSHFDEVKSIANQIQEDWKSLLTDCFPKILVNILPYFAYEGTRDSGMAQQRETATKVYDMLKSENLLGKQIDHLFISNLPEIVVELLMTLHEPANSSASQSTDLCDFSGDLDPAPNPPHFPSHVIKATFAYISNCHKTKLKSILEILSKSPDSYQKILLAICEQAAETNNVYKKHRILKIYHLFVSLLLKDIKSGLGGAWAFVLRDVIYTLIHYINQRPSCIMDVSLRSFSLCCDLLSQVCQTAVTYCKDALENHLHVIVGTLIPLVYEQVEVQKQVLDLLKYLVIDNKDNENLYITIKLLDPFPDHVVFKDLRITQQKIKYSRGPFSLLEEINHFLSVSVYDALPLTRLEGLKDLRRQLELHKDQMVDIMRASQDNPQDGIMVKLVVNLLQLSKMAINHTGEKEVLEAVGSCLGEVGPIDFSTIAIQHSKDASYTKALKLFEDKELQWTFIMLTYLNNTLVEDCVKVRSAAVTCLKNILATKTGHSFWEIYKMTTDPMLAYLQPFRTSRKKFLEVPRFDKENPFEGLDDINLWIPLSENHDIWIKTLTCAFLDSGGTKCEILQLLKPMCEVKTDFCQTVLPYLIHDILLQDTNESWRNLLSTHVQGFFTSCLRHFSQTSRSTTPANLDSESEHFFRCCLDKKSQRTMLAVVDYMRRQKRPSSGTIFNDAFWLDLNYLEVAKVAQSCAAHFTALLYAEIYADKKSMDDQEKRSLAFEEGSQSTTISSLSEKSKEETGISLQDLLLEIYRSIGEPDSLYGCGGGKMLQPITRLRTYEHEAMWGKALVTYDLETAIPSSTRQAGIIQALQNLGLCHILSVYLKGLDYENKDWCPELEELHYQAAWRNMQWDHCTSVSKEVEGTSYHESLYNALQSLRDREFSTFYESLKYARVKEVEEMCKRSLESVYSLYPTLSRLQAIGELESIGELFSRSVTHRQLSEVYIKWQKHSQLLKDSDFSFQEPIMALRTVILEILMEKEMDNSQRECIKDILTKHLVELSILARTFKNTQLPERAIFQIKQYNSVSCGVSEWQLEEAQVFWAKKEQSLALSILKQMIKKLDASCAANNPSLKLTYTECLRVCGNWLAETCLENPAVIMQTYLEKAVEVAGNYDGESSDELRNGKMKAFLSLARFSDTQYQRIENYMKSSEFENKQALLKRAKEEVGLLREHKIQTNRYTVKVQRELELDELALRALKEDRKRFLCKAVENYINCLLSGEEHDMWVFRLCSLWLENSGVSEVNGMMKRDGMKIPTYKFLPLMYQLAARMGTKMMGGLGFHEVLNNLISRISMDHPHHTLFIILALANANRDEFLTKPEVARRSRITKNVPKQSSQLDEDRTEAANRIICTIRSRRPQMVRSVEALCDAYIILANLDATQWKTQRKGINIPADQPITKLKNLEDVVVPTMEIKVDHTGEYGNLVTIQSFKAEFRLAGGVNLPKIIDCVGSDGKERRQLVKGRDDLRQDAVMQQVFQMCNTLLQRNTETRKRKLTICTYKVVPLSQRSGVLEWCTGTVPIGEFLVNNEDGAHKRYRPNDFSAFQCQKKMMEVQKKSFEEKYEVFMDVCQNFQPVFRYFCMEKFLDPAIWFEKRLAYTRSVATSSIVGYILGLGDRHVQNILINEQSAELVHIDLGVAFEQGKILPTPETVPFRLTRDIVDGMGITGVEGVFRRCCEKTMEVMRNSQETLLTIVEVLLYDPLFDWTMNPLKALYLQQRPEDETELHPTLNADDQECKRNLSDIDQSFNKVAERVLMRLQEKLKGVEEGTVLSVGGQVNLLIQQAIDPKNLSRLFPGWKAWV
T5 sequence (P57059 whole entry): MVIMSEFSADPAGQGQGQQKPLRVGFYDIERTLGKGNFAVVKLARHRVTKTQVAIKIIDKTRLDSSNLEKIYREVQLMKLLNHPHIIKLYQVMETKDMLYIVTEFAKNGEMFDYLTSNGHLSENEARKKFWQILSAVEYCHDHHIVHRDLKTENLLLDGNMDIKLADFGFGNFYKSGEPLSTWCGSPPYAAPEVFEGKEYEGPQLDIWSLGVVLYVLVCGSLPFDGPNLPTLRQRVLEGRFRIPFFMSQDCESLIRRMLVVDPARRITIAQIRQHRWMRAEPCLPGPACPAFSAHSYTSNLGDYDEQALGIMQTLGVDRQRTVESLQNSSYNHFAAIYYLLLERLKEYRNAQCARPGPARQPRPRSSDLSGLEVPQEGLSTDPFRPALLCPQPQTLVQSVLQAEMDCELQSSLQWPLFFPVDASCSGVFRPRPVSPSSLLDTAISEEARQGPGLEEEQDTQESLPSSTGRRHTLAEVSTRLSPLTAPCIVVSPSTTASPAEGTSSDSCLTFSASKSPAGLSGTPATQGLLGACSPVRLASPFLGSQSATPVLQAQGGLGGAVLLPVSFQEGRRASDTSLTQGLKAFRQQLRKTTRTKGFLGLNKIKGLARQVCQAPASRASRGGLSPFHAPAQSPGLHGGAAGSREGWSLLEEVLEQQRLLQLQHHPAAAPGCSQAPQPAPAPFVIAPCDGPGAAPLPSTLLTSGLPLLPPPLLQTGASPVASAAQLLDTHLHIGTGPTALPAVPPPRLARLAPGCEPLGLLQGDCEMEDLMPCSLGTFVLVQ
T1 sequence (P78368 whole entry): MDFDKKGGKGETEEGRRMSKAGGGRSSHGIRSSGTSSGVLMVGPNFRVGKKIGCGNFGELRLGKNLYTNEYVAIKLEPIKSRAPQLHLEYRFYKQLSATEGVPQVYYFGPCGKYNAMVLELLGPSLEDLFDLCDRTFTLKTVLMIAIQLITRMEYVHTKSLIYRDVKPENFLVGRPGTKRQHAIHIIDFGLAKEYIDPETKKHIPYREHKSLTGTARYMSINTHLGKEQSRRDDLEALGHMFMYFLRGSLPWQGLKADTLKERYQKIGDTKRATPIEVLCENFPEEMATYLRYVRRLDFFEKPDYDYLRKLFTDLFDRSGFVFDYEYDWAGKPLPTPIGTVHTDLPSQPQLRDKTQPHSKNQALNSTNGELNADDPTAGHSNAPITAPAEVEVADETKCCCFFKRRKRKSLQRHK

With `COc1ccc2ncnc(Nc3cccc(F)c3)c2c1` [5ay, N-(3-Fluorophenyl)-6-Methoxy-4-Quinazolinamine] the remaining activity at 10 µM [1, 9] was 90%, the remaining activity at 10 µM [2, 9] was 62% and the remaining activity at 10 µM [3, 9] was 84%. The remaining activity at 10 µM [4, 9] was 103%, the remaining activity at 10 µM [5, 9] was 93% and the remaining activity at 10 µM [6, 9] was 74%. It also gave a remaining activity at 10 µM [7, 9] of 97% and a remaining activity at 10 µM [8, 9] of 106%.

`Fc1ccc(CNc2ncnc3ccc(F)cc23)cc1` [5aa, 6-Fluoro-N-(4-fluorobenzyl)-4-Quinazolinamine] showed a remaining activity at 10 µM [1, 10] of 93%, a remaining activity at 10 µM [2, 10] of 84% and a remaining activity at 10 µM [3, 10] of 84%. The remaining activity at 10 µM [4, 10] was 102%, the remaining activity at 10 µM [5, 10] was 95% and the remaining activity at 10 µM [6, 10] was 98%. For the same compound, the remaining activity at 10 µM [7, 10] was 101% and the remaining activity at 10 µM [8, 10] was 133%.

For `Fc1ccc2ncnc(NCCc3ccc(Cl)cc3)c2c1` [5at, N-[2-(4-Chlorophenyl)Ethyl]-6-Fluoro-4-Quinazolinamine], the remaining activity at 10 µM [1, 11] was 86%, the remaining activity at 10 µM [2, 11] was 76% and the remaining activity at 10 µM [3, 11] was 83%. It also gave a remaining activity at 10 µM [4, 11] of 93%, a remaining activity at 10 µM [5, 11] of 86% and a remaining activity at 10 µM [6, 11] of 86%. It also gave a remaining activity at 10 µM [7, 11] of 94% and a remaining activity at 10 µM [8, 11] of 120%.

`Fc1ccc(CCNc2ncnc3ccc(F)cc23)cc1` [5as, 6-Fluoro-N-[2-(4-Fluorophenyl)Ethyl]-4-Quinazolinamine] showed a remaining activity at 10 µM [1, 12] of 88%, a remaining activity at 10 µM [2, 12] of 72% and a remaining activity at 10 µM [3, 12] of 88%. It also gave a remaining activity at 10 µM [4, 12] of 99%, a remaining activity at 10 µM [5, 12] of 93% and a remaining activity at 10 µM [6, 12] of 90%. It also gave a remaining activity at 10 µM [7, 12] of 93% and a remaining activity at 10 µM [8, 12] of 81%.
